Measurements as given in patent publication US11401279B2, “Pyrido[3,2-d]pyrimidine compounds as immunomodulators” (Incyte Corporation, priority 2019, dated 2022).
pEC50, pIC50: −log10 of the molar value.

Assays:
PD-1/PD-L1 = PD-1/PD-L1 (Homo sapiens (Human), UniProt Q9NZQ7); assay: Homogeneous Time-Resolved Fluorescence (HTRF) PD-1/PD-L1 binding assay; conditions: recombinant human PD-1 and PD-L1
Protocol: The assays were conducted in a standard black 384-well polystyrene plate with a final volume of 20 μL. Inhibitors were first serially diluted in DMSO and then added to the plate wells before the addition of other reaction components. The final concentration of DMSO in the assay was 1%. The assays were carried out at 25° C. in the PBS buffer (pH 7.4) with 0.05% Tween-20 and 0.1% BSA. Recombinant human PD-L1 protein (19-238) with a His-tag at the C-terminus was purchased from AcroBiosystems (PD1-H5229). Recombinant human PD-1 protein (25-167) with Fc tag at the C-terminus was also purchased from AcroBiosystems (PD1-H5257). PD-L1 and PD-1 proteins were diluted in the assay buffer and 10 μL was added to the plate well. Plates were centrifuged and proteins were preincubated with inhibitors for 40 minutes. The incubation was followed by the addition of 10 μL of HTRF detection buffer supplemented with Europium cryptate-labeled anti-human IgG (PerkinElmer-AD0212) specific for Fc and anti-His antibody conjugated to SureLight®-Allophycocyanin (APC, PerkinElmer-AD0059H). After centrifugation, the plate was incubated at 25° C. for 60 min. before reading on a PHERAstar FS plate reader (665 nm/620 nm ratio). Final concentrations in the assay were—3 nM PD1, 10 nM PD-L1, 1 nM europium anti-human IgG and 20 nM anti-His-Allophycocyanin. IC50 determination was performed by fitting the curve of percent control activity versus the log of the inhibitor concentration using the GraphPad Prism 5.0 software.

[1] = tested on: U2OS/PD-L1 cells and Jurkat-PD-1-SHP cells; assay: Src homology region 2 domain-containing phosphatase (SHP) assay; assay type: cell-based; conditions: Homo sapiens, U2OS; PathHunter chemiluminescence, 2 hours
Protocol: U2OS/PD-L1 cells (DiscoveRx Corporation) were maintained in McCoy's 5A medium with addition of 10% FBS, 0.25 μg/mL Puromycin. After removing the culture media, the cell medium was replaced with assay medium (RPMI1640 medium with 1% FBS). The U2OS/PD-L1 cells were then added in 384-well black clear bottom assay plate (CELLCOAT® Tissue Culture Plates, Greiner Bio-One) at 5000 cells per well in 20 μL assay medium. Test compounds were prepared by serial dilution in DMSO and 125 nL compound were first transferred to the 384 REMP plate well (Thermofisher) by ECHO liquid handler (Labcyte) followed with addition of 27.5 μL assay medium. 5 µL/well compounds in the assay medium were transferred to the cell plate with 0.05% DMSO in the final assay at 0.25 μM. Jurkat-PD-1-SHP cells (DiscoveRx Corporation) were cultured in RPMI1640 medium supplemented with 10% FBS, 250 μg/mL Hygromycin B, 500 μg/mL G418. After the replacement of culture media with assay medium, 5,000 Jurkat-PD-1-SHP cells in 20 μL were dispensed into each well. The assay plate was incubated at 37° C., 5% CO2 for 2 hours before 2.5 μL PathHunter reagent 1 (DiscoveRx Corporation) were added to each well. The assay plate was shaken for 1 min at 350 rpm in the dark followed with addition of 10 μL PathHunter reagent 2 (DiscoveRx Corporation). Chemiluminescent signal was recorded with TopCount reader (Perkin Elmer) after incubation at room temperature for 1 hour. Wells with DMSO were served as the positive controls and wells containing no cells were used as negative controls. IC50 determination was performed by fitting the curve of percentage of control activity versus the log of the compound concentration using the GraphPad Prism 6.0 software.

[2] = tested on: PD-L1 aAPC/CHO-K1 cells and Jurkat-PD-1-NFAT effector cells; assay: Nuclear factor of activated T-cells (NFAT) assay; assay type: cell-based; conditions: Cricetulus griseus, CHO-K1; luminescence, 24 hours
Protocol: PD-L1 aAPC/CHO-Klcells (Promega) were maintained in F-12 medium with addition of 10% FBS, 200 μg/mL Hygromycin B, 250 μg/mL Geneticin (G418). Jurkat-PD-1-NFAT effector cells (Promega) were cultured in RPMI 1640 medium supplemented with 10% FBS, 100 μg/mL Hygromycin B, 500 μg/mL G418. The culture media of PD-L1 aAPC/CHO-K1 cells were first replaced with assay medium (RPMI1640 medium with 1% FBS). The PD-L1 aAPC/CHO-Klcells were then added in a white 384-well white clear bottom assay plate (CELLCOAT® Tissue Culture Plates, Greiner Bio-One) at 8000 per well in 10 μL assay medium. Test compounds were prepared by serial dilution in DMSO and 0.8 μL test compounds in DMSO were first transferred to the 384 REMP plate well (Thermofisher) by PlateMate Plus (Thermofisher) followed with addition of 50 μL plating medium. 5 μL compounds in the assay medium were transferred to the cells with 0.4% DMSO in the final assay at 2 μM. After removing the culture media, 10,000 Jurkat-PD-1-NFAT effector cells in 5 μL assay medium was dispensed into each well. The assay plate was incubated at 37° C., 5% CO2 for 24 hours. After the assay plate was equilibrated to room temp for 15 minutes, 20 μL/well of Bio-Glo™ reagent (Promega) were added. After 8 minutes incubation at room temperature, luminescence was read at with Pherastar microplate reader (BMG Labtech). The fold of induction (FOI) was calculated based on the ratio of luminescence normalized to the DMSO wells within each assay plate. The maximum percentage of induction was reported based on the ratio between the highest FOI of each compound and the maximum FOI of control compound within each assay plate. Wells with DMSO were served as the negative controls and wells containing control compound with the highest FOI were used as positive controls. EC50 determination was performed by fitting the curve of percent control activity versus the log of the compound concentration using the GraphPad Prism 6.0 software.

PD-L1 = PD-L1 (Homo sapiens (Human), UniProt Q9NZQ7); assay: PD-L1 whole blood internalization assay; assay type: cell-based; conditions: PD-L1 internalization in human whole blood, CD14+ cells, interferon γ, 24 hour
Protocol: To determine PD-L1 internalization in human whole blood, normal human blood (Biological Specialty Corp, Colmar. Pa.) was incubated in the presence or absence of a concentration range of test compounds and 1 ng/mL human interferon γ (R&D Systems Inc. Minn. […] Blood was then stained with PD-L1 (MIH1, eBioscience; or BD Biosciences San Jose, Calif.), CD14 (Life Technologies, Carlsbad, Calif.) for 30 minutes in the dark at room temperature. Whole Blood/red cells were lysed/fixed (lysis buffer BD Biosciences) for 5 minutes at 37° C. in the dark and then centrifuged at 1600 RPM for 5 minutes. Cells were resuspended in Stain Buffer (BD Bioscience, San Jose, Calif.) and transferred into 96 well round bottom plates (Corning). Cells were gated on CD14+(BD Biosciences) and PD-L1 expression determined by mean fluorescence intensity (MFI) (BD LSRFortessa™ X-20). IC50 determination was performed by fitting the curve of compound percent inhibition versus the log of the compound concentration using the GraphPad Prism 7.0 software.

[3] = In vivo pharmacokinetics in rats; parameters: species or system Sprague Dawley rats; conditions: rat, cassette dosing
Protocol: For in vivo pharmacokinetic experiments, test compounds were administered to male Sprague Dawley rats or male and female Cynomolgus monkeys intravenously or via oral gavage. For intravenous (IV) dosing, test compounds were dosed at 0.5 to 1 mg/kg using a formulation of 10% dimethylacetamide (DMAC) in acidified saline via IV bolus for rat and 5 min or 10 min IV infusion for monkey. For oral (PO) dosing, test compounds were dosed at 1.0 to 3.0 mg/kg using 5% DMAC in 0.5% methylcellulose in citrate buffer (pH 3.5). Blood samples were collected at predose and various time points up to 24 hours postdose. All blood samples were collected using EDTA as the anticoagulant and centrifuged to obtain plasma samples. The plasma concentrations of test compounds were determined by LC-MS methods. The measured plasma concentrations were used to calculate PK parameters by standard noncompartmental methods using Phoenix® WinNonlin software program (version 7.0, Pharsight Corporation).
In rats and monkeys, cassette dosing of test compounds were conducted to obtain preliminary PK parameters.

[4] = male, Sprague-Dawley, plasma, 1.0 mg/kg IV

PD-L1, sequence (Q9NZQ7 19-290): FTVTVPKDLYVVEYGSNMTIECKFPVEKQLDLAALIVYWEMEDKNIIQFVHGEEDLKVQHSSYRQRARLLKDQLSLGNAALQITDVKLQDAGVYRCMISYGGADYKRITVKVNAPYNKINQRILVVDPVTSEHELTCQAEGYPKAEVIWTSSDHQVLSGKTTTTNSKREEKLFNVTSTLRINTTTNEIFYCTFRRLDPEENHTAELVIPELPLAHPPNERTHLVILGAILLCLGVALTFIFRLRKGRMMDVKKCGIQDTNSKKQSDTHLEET
PD-1/PD-L1, sequence (Q9NZQ7 19-238): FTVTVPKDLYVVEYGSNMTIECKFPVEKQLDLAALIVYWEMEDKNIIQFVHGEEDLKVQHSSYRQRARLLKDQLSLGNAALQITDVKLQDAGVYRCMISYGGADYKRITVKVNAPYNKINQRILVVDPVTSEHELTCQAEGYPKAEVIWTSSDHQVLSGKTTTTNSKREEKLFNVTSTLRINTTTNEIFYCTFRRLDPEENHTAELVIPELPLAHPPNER

SMILES | pIC50 (PD-1/PD-L1) | pIC50 [1] | pIC50 (PD-L1) | clearance [3, 4] | half-life [3, 4] | Vd ([3]; male, Sprague-Dawley, plasma, 1.0 mg/kg IV, read-out: Vss) | Cmax ([3]; male, Sprague-Dawley, plasma, 3.0 mg/kg PO) | AUC(0-inf) ([3]; male, Sprague-Dawley, plasma, 3.0 mg/kg PO, read-out: AUC0-inf) | F ([3]; 3.0 mg/kg PO) | pEC50 [2]
Cc1c(NC(=O)c2nc3c(n2C)CCN(CCC24CCC(C(=O)O)(CC2)C4)C3)cccc1-c1cccc(Nc2nc(C(F)F)nc3cc(CN4CC[C@@](C)(O)C4)cnc23)c1C [Example 6, (R)-4-(2-(2-((3′-((2-(difluoromethyl)-7-((3-hydroxy-3-methylpyrrolidin-1-yl)methyl)pyrido[3,2-d]pyrimidin-4-yl)amino)-2,2′-dimethyl-[1,1′-biphenyl]-3-yl)carbamoyl)-1-methyl-1,4,6,7-tetrahydro-5H-imidazo[4,5-c]pyridin-5-yl)ethyl)bicyclo[2.2.1]heptane-1-carboxylic Acid] |  | 8.66 | 7.51 | 12.7 mL/min/kg | 4.5 h | 2.99 L/kg | 182 nM | 1.43 µM·h | 30% | 8.09
Cc1c(Nc2nc(C(F)F)nc3cc(CN4CCCC4)cnc23)cccc1-c1cccc(NC(=O)c2nc3c(n2C)CCN(CCC24CCC(C(=O)O)(CC2)C4)C3)c1Cl [Example 7, 4-(2-(2-((2-chloro-3′-((2-(difluoromethyl)-7-(pyrrolidin-1-ylmethyl)pyrido[3,2-d]pyrimidin-4-yl)amino)-2′-methyl-[1,1′-biphenyl]-3-yl)carbamoyl)-1-methyl-1,4,6,7-tetrahydro-5H-imidazo[4,5-c]pyridin-5-yl)ethyl)bicyclo[2.2.1]heptane-1-carboxylic Acid] | 8.82 | 8.66 | 7.80 |  |  |  |  |  |  | 8.40
Cc1c(Nc2nc(C(F)F)nc3cc(CN4CCC[C@H]4C)cnc23)cccc1-c1cccc(NC(=O)c2nc3c(n2C)CCN(CCC24CCC(C(=O)O)(CC2)C4)C3)c1Cl [Example 8, (R)-4-(2-(2-((2-chloro-3′-((2-(difluoromethyl)-7-((2-methylpyrrolidin-1-yl)methyl)pyrido[3,2-d]pyrimidin-4-yl)amino)-2′-methyl-[1,1′-biphenyl]-3-yl)carbamoyl)-1-methyl-1,4,6,7-tetrahydro-5H-imidazo[4,5-c]pyridin-5-yl)ethyl)bicyclo[2.2.1]heptane-1-carboxylic Acid] | 8.82 | 8.40 | 7.48 |  |  |  |  |  |  | 8.15

Further lines, with some results ahead:

pIC50 (PD-1/PD-L1) | pIC50 [1] | pIC50 (PD-L1) | clearance [3, 4] | half-life [3, 4] | Vd ([3]; male, Sprague-Dawley, plasma, 1.0 mg/kg IV, read-out: Vss) | Cmax ([3]; male, Sprague-Dawley, plasma, 3.0 mg/kg PO) | AUC(0-inf) ([3]; male, Sprague-Dawley, plasma, 3.0 mg/kg PO, read-out: AUC0-inf) | F ([3]; 3.0 mg/kg PO) | SMILES | pEC50 [2]
8.82 | 8.60 | 7.74 |  |  |  |  |  |  | Cc1c(Nc2nc(C(F)F)nc3cc(CN4CC[C@H](O)C4)cnc23)cccc1-c1cccc(NC(=O)c2nc3c(n2C)CCN(CCC24CCC(C(=O)O)(CC2)C4)C3)c1Cl [Example 3, (S)-4-(2-(2-((2-chloro-3′-((2-(difluoromethyl)-7-((3-hydroxypyrrolidin-1-yl)methyl)pyrido[3,2-d]pyrimidin-4-yl)amino)-2′-methyl-[1,1′-biphenyl]-3-yl)carbamoyl)-1-methyl-1,4,6,7-tetrahydro-5H-imidazo[4,5-c]pyridin-5-yl)ethyl)bicyclo[2.2.1]heptane-1-carboxylic Acid] | 8.40
8.72 | 8.46 | 7.77 |  |  |  |  |  |  | Cc1c(Nc2nc(C(F)F)nc3cc(CN4CC[C@](C)(O)C4)cnc23)cccc1-c1cccc(NC(=O)c2nc3c(n2C)CCN(CCC24CCC(C(=O)O)(CC2)C4)C3)c1Cl [Example 4, (S)-4-(2-(2-((2-chloro-3′-((2-(difluoromethyl)-7-((3-hydroxy-3-methylpyrrolidin-1-yl)methyl)pyrido[3,2-d]pyrimidin-4-yl)amino)-2′-methyl-[1,1′-biphenyl]-3-yl)carbamoyl)-1-methyl-1,4,6,7-tetrahydro-5H-imidazo[4,5-c]pyridin-5-yl)ethyl)bicyclo[2.2.1]heptane-1-carboxylic Acid] | 8.40
7.74 | 7.21 |  |  |  |  |  |  |  | Cn1c(C(=O)Nc2cccc(-c3cccc(NC(=O)c4nc5c(n4C)CCN(C4CCOCC4)C5)c3Cl)c2Cl)nc2c1CCN(CC13CCC(C(=O)O)(CC1)C3)C2 [Example 179, reference compound] | 6.15
